{"source": "paper PMC5567672", "about": "(Neuropharmacology, 2016)", "key": {"mice [1]": {"system": "mice"}, "patients": {"system": "patients", "conditions": "ref Post et al. in press; cited from earlier work"}, "animals": {"system": "animals", "conditions": "ref Post et al. in press; cited from earlier work"}, "rodents": {"system": "rodents", "conditions": "ref Jenck et al., 1997, 2000; cited from earlier work"}, "mice [2]": {"system": "mice", "experiment": "Elevated plus maze", "format": "in vivo, mouse", "conditions": "for EPM activity (Table 1 summary): in vivo, mice"}, "NOP(+/+) mice": {"system": "NOP(+/+) mice", "experiment": "Elevated plus maze", "format": "in vivo, mouse", "conditions": "Ro 65–6570 0.1 mg/kg, i.p.; 8–10 mice per group"}, "NOP(−/−) mice": {"system": "NOP(−/−) mice", "experiment": "Elevated plus maze", "format": "in vivo, mouse", "conditions": "Ro 65–6570 0.1 mg/kg, i.p.; 8–10 mice per group"}, "mice [3]": {"system": "mice", "experiment": "Forced swim test", "format": "in vivo, mouse", "conditions": "for FST activity (Table 1 summary): in vivo, mice"}, "[4]": {"target": "T1, NOP/G-protein interaction (NOP receptor) (Homo sapiens, UniProt P41146)", "T1 sequence (P41146 whole entry)": "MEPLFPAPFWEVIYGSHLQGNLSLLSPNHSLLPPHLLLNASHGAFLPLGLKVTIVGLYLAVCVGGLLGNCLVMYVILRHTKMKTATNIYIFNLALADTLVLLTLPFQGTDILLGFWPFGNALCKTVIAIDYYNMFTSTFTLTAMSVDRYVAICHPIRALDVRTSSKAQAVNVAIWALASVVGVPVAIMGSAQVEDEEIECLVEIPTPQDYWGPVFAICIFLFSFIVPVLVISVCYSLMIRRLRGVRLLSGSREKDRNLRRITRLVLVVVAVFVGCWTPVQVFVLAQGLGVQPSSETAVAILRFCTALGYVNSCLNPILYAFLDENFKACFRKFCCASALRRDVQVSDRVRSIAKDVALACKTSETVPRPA", "conditions": "2015, cited from earlier work; for antagonism of N/OFQ effects, NOP/G protein / rank order of antagonist potency, NOP/G protein: against N/OFQ, ref Camarda et al., 2009, Malfacini et al."}, "[5]": {"target": "T2, NOP/β-arrestin 2 interaction (NOP receptor) (Homo sapiens, UniProt P41146)", "T2 sequence (P41146 whole entry)": "as above", "conditions": "ref Malfacini et al., 2015, cited from earlier work; for antagonism of N/OFQ stimulated NOP/β-arrestin 2 interaction: against N/OFQ"}, "β-arrestin 2(−/−) mice [6]": {"system": "β-arrestin 2(−/−) mice", "conditions": "chronic treatment, various assays; ref David et al., 2009; cited from earlier work"}, "β-arrestin 2(−/−) mice [7]": {"system": "β-arrestin 2(−/−) mice", "conditions": "ref Beaulieu et al., 2008, David et al., 2009; cited from earlier work"}, "wild type mice": {"system": "wild type mice", "conditions": "ref Beaulieu et al., 2008; cited from earlier work"}, "[8]": {"target": "T2, NOP/β-arrestin 2 interaction (NOP receptor)", "experiment": "BRET assay, NOP/β-arrestin 2 interaction", "format": "cell-based", "conditions": "relative to N/OFQ"}, "[9]": {"target": "T1, NOP/G-protein interaction (NOP receptor)", "format": "biochemical"}}, "note": "Where two headings read alike, the source gives them in different places."}
{"compound": "CC(C)[C@H]1CC[C@@H](N2CCC(N3C(=O)C(=O)c4ccccc43)CC2)CC1", "note": "[AT-090, 1-(1-(cis-4-isopropylcyclohexyl)piperidin-4-yl)indoline-2,3-dione]", "values": [{"measurement": "motor impairment in the rotarod test", "setting": "mice [1]; AT-090 at the higher dose tested, i.p., Fig. S1", "result": "did not evoke any motor impairment"}]}
{"compound": "Cc1nn(-c2ncccc2CO)cc1CN1CCC2(CC1)OCC(F)(F)c1cc(Cl)sc12", "note": "[LY2940094]", "values": [{"measurement": "antidepressant effects, patients", "setting": "patients", "result": "robust antidepressant effects"}, {"measurement": "antidepressant effects, animals", "setting": "animals", "result": "robust antidepressant effects"}]}
{"compound": "O=C1NCN(c2ccccc2)C12CCN([C@@H]1CC[C@H]3CCCc4cccc1c43)CC2", "note": "[Ro64–6198]", "values": [{"measurement": "anxiolytic-like effects", "setting": "rodents", "result": "produce anxiolytic-like effects"}]}
{"compound": "O=C1NCN(c2ccccc2)C12CCN(C1Cc3cccc4cccc1c34)CC2", "note": "(stereo not shown) [Ro 65–6570]", "values": [{"measurement": "time spent in and number of entries in the open arms", "setting": "mice [2]; Ro 65–6570 0.01–0.1 mg/kg, i.p., 30 min prior, CD-1 mice, 12–16 per group", "result": "increased in a dose-dependent manner"}, {"measurement": "EPM activity (Table 1 summary)", "setting": "mice [2]", "result": "anxiolytic"}, {"measurement": "anxiolytic-like effect, NOP(+/+) mice", "setting": "NOP(+/+) mice", "result": "evident in NOP(+/+)"}, {"measurement": "anxiolytic-like effect, NOP(−/−) mice", "setting": "NOP(−/−) mice", "result": "not NOP(−/−) mice"}, {"measurement": "motor impairment in the rotarod test", "setting": "mice [1]; mouse, in vivo", "result": "did not produce any motor impairment"}, {"measurement": "immobility time", "setting": "mice [3]; Ro 65–6570 0.1 mg/kg, i.p., 30 min prior, CD-1 mice, 11–16 per group", "result": "had no effect"}, {"measurement": "FST activity (Table 1 summary)", "setting": "mice [3]", "result": "inactive"}]}
{"compound": "Cc1cccc2c1CC[C@H](CN1CCC(c3c(Cl)cccc3Cl)CC1)C[C@@H]2O", "note": "[SB-612111, (−)-cis-1-methyl-7-[[4-(2,6-dichlorophenyl)piperidin-1-yl]methyl]-6,7,8,9-tetrahydro-5H-benzocyclohepten-5-ol]", "values": [{"measurement": "behavior in the EPM, per se", "setting": "mice [2]; SB-612111 10 mg/kg, i.p., 30 min, CD-1 mice, 10–12 per group", "result": "did not modify per se the mouse behavior"}, {"measurement": "block of the anxiolytic-like effects of Ro 65–6570", "setting": "mice [2]; SB-612111 10 mg/kg, i.p., 30 min pre-treatment, against Ro 65–6570 0.1 mg/kg i.p., CD-1 mice", "result": "completely block"}, {"measurement": "EPM activity (Table 1 summary)", "setting": "mice [2]", "result": "inactive"}, {"measurement": "antagonism of N/OFQ effects, NOP/G protein", "setting": "[4]", "result": "antagonized N/OFQ effects showing a competitive type of interaction"}, {"measurement": "rank order of antagonist potency, NOP/G protein", "setting": "[4]", "result": "SB-612111 > UFP-101"}, {"measurement": "pharmacological activity, G protein (Table 1 summary), previously obtained", "setting": "[4]; in vitro, G protein, ref Malfacini et al.", "result": "antagonist"}, {"measurement": "FST activity (Table 1 summary)", "setting": "mice [3]", "result": "antidepressant"}, {"measurement": "antagonism of N/OFQ stimulated NOP/β-arrestin 2 interaction", "setting": "[5]", "result": "able to antagonize"}, {"measurement": "pharmacological activity, β-arrestin (Table 1 summary), previously obtained", "setting": "[5]; in vitro, β-arrestin", "result": "antagonist"}]}
{"compound": "CNCCC(Oc1ccc(C(F)(F)F)cc1)c1ccccc1", "note": "(stereo not shown) [fluoxetine]", "values": [{"measurement": "anxiolytic-like effects in β-arrestin 2(−/−) mice", "setting": "β-arrestin 2(−/−) mice [6]", "result": "failed to induce anxiolytic-like effects"}, {"measurement": "antidepressant effects, tail suspension test", "setting": "β-arrestin 2(−/−) mice [7]", "result": "did not evoke antidepressant effects"}]}
{"compound": "[Li]", "note": "[lithium]", "values": [{"measurement": "latency to cross, light/dark test, wild type", "setting": "wild type mice", "result": "reduces the latency to cross in wild type"}, {"measurement": "antidepressant effects, tail suspension test", "setting": "β-arrestin 2(−/−) mice [7]", "result": "did not evoke antidepressant effects"}]}
{"compound": "[Nphe 1, Arg 14, Lys 15]N/OFQ-NH 2 [UFP-101]", "values": [{"measurement": "EPM activity (Table 1 summary)", "setting": "mice [2]", "result": "inactive"}, {"measurement": "stimulation of NOP/β-arrestin 2 interaction (in words)", "setting": "[8]", "result": "inactive"}, {"measurement": "antagonism of N/OFQ effects, NOP/G protein", "setting": "[4]", "result": "antagonized N/OFQ effects showing a competitive type of interaction"}, {"measurement": "rank order of antagonist potency, NOP/G protein", "setting": "[4]", "result": "SB-612111 > UFP-101"}, {"measurement": "stimulation of NOP/G-protein interaction (in words)", "setting": "[9]", "result": "inactive"}, {"measurement": "FST activity (Table 1 summary)", "setting": "mice [3]", "result": "antidepressant"}, {"measurement": "antagonism of N/OFQ stimulated NOP/β-arrestin 2 interaction", "setting": "[5]", "result": "able to antagonize"}]}
